Source: US20060211651A1, “Persulfated oligosaccharide acting on selectins and chemokine” (Taisho Pharmaceutical Co., Ltd., priority 2002, published 2006)
One block for each molecule: values may come before it.

What was measured:
P-selectin-Ig = assay: Binding inhibition assay (ELISA), biotinylated versican to P-selectin-Ig, various concentrations; conditions: dose-dependent, FIG. 2 panel B
Description: (§1) Inhibition assay of binding between versican and each of L-selectin, P-selectin and CD44 was performed as follows. First, each well on a 96 well flat bottom microtiter plate (Coster EIA/RIA plate No. 3690) was coated with L-selectin-Ig (3 μg/ml), P-selectin-Ig (4 μg/ml) or CD44-Ig (0.25 μg/ml) by a conventional procedure. […] The plate was incubated at room temperature for 2 hours. Thereafter, the plate was washed with the buffer A, and enzyme-linked immunosorbent assay was performed in the same manner as described in Kawashima, H. et al. [J. Biol. Chem., 275, 35448-35456 (2000)]. Binding was determined by measuring absorbance at 620 nm using alkaline phosphatase-conjugated streptavidin and Blue Phos™ substrate.

monomeric L-selectin = molecular target: T1, monomeric L-selectin (Homo sapiens, UniProt P14151); assay: BIAcore surface plasmon resonance, immobilized glycosaminoglycan vs monomeric L-selectin; assay type: binding; conditions: monomeric L-selectin
T1 construct: purchased Genzyme-Techne
T1 sequence (P14151 39-332 limits assumed): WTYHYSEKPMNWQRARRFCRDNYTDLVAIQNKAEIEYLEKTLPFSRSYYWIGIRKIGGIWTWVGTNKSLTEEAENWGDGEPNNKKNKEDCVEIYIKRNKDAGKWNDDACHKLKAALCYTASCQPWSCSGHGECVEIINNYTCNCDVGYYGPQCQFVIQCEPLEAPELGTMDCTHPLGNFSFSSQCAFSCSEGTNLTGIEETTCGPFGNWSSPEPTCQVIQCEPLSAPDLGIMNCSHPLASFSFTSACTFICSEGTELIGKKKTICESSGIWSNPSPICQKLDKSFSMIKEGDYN
Description: (§2) Affinity kinetics of the interaction between various CS/DS chains and each of L-selectin, P-selectin, CD44 and chemokine were examined by surface plasmon resonance using BIAcore™ biosensor [manufactured by BIAcore AB].
(§3) All experiments were performed at 25° C. At stages of washing and dissociation, buffer C (20 mM HEPES-NaOH, 0.15M NaCl, 1 mM CaCl2, 1 mM MgCl2, pH6.8) was used as a running buffer.
(§4) First, about 1.8 to 2.0 kiloresonance unit (1 kiloresonance unit=1 ng/mm^2) of streptavidin were covalently immobilized onto B1 sensor chip via a primary amine group using an amine coupling kit [manufactured by Amercham-Bioscience] according to the instruction provided by the manufacturer. The remaining activated groups were blocked with 150 μl of 1M ethanolamine-HCl (pH8.5). Then, each glycosaminoglycan which had been biotinylated at a reducing end was injected to a sensor tip surface by using EZ-link™ biotin-LC-hydrazide [manufactured by Pierce] so as to obtain about 150 resonance unit of an immobilization level, according to the method of Sadir et al. [J. Biol. Chem., 276, 8288-8296 (2001); all teachings of which are hereby incorporated by reference].
(§5) Binding assay was performed by injecting continuously each of various concentrations of secondary lymphoid tissue chemokine, γ-interferon inducible protein-10, stromal cell-derived factor-1β, monomeric L-selectin [manufactured by Genzyme-Techne], monomeric P-selectin [manufactured by Genzyme-Techne] and monomeric CD44, to a glycosaminoglycan-coupled sensor tip at a flow rate of 30 μl/min for 0 to 90 seconds, and then injecting a running buffer thereto. A response in resonance unit was recorded as a function of a time.
(§6) A sensor tip surface was regenerated with 300 μl of 1 M NaCl when chemokine or CD44 was used, or regenerated with 300 μl of 1 M NaCl, and additional 100 μl of 50 mM EDTA (pH8.0), when selectin was used. As a result of regeneration of a sensor tip surface, a remarkable change in a baseline was not observed.
(§7) An affinity kinetic parameter was determined by BIAevaluation 3.0 software [manufactured by Pharmacia Biosensor] using a single site binding model. […] In FIG. 6 and Table 3, SLC denotes secondary lymphoid tissue chemokin, IP-10 denotes γ-interferon inducible protein-10, SDF-1β denotes stromal cell-derived factor-1β, CS E denotes chondroitin sulfate E, and CS A denotes chondroitin sulfate A. In addition, in Table 3, Kd value for the interaction between monomeric CD44 and chondroitin sulfate E is a value calculated from a binding amount at equilibrium, and Kd value of the interaction between CD44 and hyaluronic acid is a value calculated using CD44-Ig.

[1] = molecular target: T2, stromal cell-derived factor-1β (Homo sapiens, UniProt P48061); assay: BIAcore surface plasmon resonance, immobilized glycosaminoglycan vs SDF-1β; assay type: binding
T2 construct: purchased Pepro Tech
Description: as §2, §3, §4, §5, §6, §7

monomeric CD44 = molecular target: T3, monomeric CD44 (Homo sapiens, UniProt P16070); assay: BIAcore surface plasmon resonance, immobilized glycosaminoglycan vs monomeric CD44; assay type: binding; conditions: CD44 monomeric; GAG immobilized; 25° C.
T3 construct: codons of amino acids positions 172 to 178 of human CD44; Myc-His (from vector pcDNA 3.1/Myc-His(+) B) (C); made in house; host or cells: 293T cells, secreted into conditioned medium and purified on anti-CD44 BRIC 235 Sepharose
Description: Human-derived CD44 cDNA was prepared by PCR using a sense primer (SEQ ID NO: 1):
Thereafter, the conditioned medium was subjected to immunoaffinity chromatography with anti-CD44 monoclonal antibody BRIC 235-coupled CNBr-activated Sepharose 4B, to obtain monomeric CD44. The resulting soluble CD44 was subjected to SDS-PAGE and silver staining. As a result, the purity of the resulting soluble CD44 was more than 95%.
as §2, §3, §4, §5, §6, §7

monomeric P-selectin [2] = molecular target: T4, monomeric P-selectin (Homo sapiens, UniProt P16109); assay: BIAcore surface plasmon resonance, immobilized glycosaminoglycan vs monomeric P-selectin; assay type: binding; conditions: monomeric P-selectin
T4 construct: purchased Genzyme-Techne
T4 sequence (P16109 42-771 limits assumed): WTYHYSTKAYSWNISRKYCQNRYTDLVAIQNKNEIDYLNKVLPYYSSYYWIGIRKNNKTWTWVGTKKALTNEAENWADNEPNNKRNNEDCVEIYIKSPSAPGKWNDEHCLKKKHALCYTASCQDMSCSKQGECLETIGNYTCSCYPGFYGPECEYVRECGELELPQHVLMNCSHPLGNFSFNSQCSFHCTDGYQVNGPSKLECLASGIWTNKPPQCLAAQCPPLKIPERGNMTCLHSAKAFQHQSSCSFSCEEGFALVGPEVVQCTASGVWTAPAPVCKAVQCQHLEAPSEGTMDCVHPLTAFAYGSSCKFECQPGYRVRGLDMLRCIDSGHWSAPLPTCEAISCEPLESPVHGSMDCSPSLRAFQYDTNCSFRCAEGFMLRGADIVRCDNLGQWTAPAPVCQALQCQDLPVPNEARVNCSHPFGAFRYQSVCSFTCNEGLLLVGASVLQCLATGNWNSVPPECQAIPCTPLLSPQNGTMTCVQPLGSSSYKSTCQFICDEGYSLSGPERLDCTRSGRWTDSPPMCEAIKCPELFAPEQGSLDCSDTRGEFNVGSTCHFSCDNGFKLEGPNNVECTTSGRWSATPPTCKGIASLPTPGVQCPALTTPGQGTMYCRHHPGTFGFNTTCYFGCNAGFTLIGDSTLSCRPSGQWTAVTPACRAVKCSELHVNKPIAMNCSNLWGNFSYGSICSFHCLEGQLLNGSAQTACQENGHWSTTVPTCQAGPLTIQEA
Description: as §2, §3, §4, §5, §6, §7

L-selectin-Ig = molecular target: T5, L-selectin-Ig (Homo sapiens, UniProt P14151); assay: Binding inhibition assay (ELISA), biotinylated versican to L-selectin-Ig, various concentrations; conditions: dose-dependent, FIG. 2 panel A
T5 construct: purchased R & D Systems Inc
Description: as §1

[3] = molecular target: γ-interferon inducible protein-10 (Homo sapiens, UniProt P02778); assay: BIAcore surface plasmon resonance, immobilized glycosaminoglycan vs IP-10; assay type: binding
Description: as §2, §3, §4, §5, §6, §7

[4] = system: secondary lymphoid tissue chemokine; assay: BIAcore surface plasmon resonance, immobilized glycosaminoglycan vs SLC; assay type: binding
Description: as §2, §3, §4, §5, §6, §7

CD44-Ig [5] = assay: ELISA, biotinylated versican binding to CD44-Ig in presence of glycosaminoglycan; set-up: species or system human; conditions: 100 μg/ml glycosaminoglycan; FIG. 5
Description: A well of a 96 well flat bottom microtiter plate was coated with BSA (5 μg/ml), anti-versican monoclonal antibody 2B1 (5 μg/ml), CD44-Ig (7 μg/ml), L-selectin-Ig (3 μg/ml), P-selectin-Ig (3 μg/ml) or chemokine (1 μg/ml), and then blocked with a phosphate buffered physiological saline containing 3% by weight of BSA. As the above chemokine, secondary lymphoid tissue chemokine, γ-interferon inducible protein-10, platelet factor 4, stromal cell-derived factor-1β [manufactured by Pepro Tech] and stromal cell-derived factor-1α [manufactured by Pepro Tech] were used.
Thereafter, the plate was washed with the buffer A, and enzyme-linked immunosorbent assay was performed in the same manner as that of the previous report [Kawashima, H. et al., J. Biol. Chem., 275, 35448-35456 (2000)]. Binding was determined by measuring absorbance at 620 nm using alkaline phosphatase-conjugated streptavidin and Blue Phos™ substrate. In FIG. 5, expression of an abscissa axis is the same as that of FIG. 4.

CD44-Ig [6] = assay: BIAcore surface plasmon resonance, hyaluronic acid vs CD44-Ig; set-up: species or system human; conditions: bivalent analyte binding model
Description: Then, using the resulting CD44, human CD44-immunoglobulin (Ig) was prepared according to the method described in Toyama-Sorimachi, N. [J. Biol. Chem., 270, 7437-7444, (1995); all teachings of which are hereby incorporated by reference].
as §2, §3
First, about 1.8 to 2.0 kiloresonance unit (1 kiloresonance unit=1 ng/mm^2) of streptavidin were covalently immobilized onto B1 sensor chip via a primary amine group using an amine coupling kit [manufactured by Amercham-Bioscience] according to the instruction provided by the manufacturer. The remaining activated groups were blocked with 150 μl of 1M ethanolamine-HCl (pH8.5). […]
as §5, with “time. […]” for “time.”
In FIG. 6 and Table 3, SLC denotes secondary lymphoid tissue chemokin, IP-10 denotes γ-interferon inducible protein-10, SDF-1β denotes stromal cell-derived factor-1β, CS E denotes chondroitin sulfate E, and CS A denotes chondroitin sulfate A. In addition, in Table 3, Kd value for the interaction between monomeric CD44 and chondroitin sulfate E is a value calculated from a binding amount at equilibrium, and Kd value of the interaction between CD44 and hyaluronic acid is a value calculated using CD44-Ig.

monomeric P-selectin [7] = molecular target: T4, monomeric P-selectin; conditions: cited from earlier work

T3 sequence (P16070 21-178 limits assumed): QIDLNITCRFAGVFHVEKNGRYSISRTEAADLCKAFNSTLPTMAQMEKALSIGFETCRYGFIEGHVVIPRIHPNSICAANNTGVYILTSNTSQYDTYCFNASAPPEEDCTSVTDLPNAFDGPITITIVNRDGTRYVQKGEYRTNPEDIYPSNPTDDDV
Chain of CD44-Ig (P16070 21-178 limits assumed): as above
T5 sequence (P14151 with tags, fused parts or gaps limits assumed): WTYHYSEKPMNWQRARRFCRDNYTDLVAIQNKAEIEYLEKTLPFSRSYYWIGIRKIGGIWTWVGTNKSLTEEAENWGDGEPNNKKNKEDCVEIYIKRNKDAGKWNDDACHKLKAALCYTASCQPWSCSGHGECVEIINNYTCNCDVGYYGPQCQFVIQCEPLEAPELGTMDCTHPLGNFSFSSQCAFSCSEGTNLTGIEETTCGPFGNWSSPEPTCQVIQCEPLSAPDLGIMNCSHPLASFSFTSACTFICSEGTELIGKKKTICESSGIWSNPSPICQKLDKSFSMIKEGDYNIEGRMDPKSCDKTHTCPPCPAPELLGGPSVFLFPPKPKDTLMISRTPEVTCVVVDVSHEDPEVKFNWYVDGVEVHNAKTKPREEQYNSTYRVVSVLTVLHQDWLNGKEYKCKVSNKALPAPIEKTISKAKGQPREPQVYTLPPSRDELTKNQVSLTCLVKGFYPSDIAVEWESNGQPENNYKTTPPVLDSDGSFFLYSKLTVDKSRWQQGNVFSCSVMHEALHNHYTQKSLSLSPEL
T2 sequence (P48061 22-93): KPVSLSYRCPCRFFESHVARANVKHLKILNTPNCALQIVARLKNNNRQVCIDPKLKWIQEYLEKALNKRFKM
Chain of γ-interferon inducible protein-10 (P02778 22-98): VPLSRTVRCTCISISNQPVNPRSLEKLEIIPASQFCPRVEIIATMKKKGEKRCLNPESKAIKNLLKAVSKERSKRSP

inhibition of binding between biotinylated versican and P-selectin-Ig (P-selectin-Ig): not inhibited
inhibition of binding between biotinylated versican and L-selectin-Ig (L-selectin-Ig): not inhibited
Molecule: dermatan sulfate [DS]

Kd (CD44-Ig [6]; determined using CD44-Ig): 2080 nM
Molecule: hyaluronic acid [HA]
koff (CD44-Ig [6]; CD44-Ig): 0.0543 s⁻¹
kon (CD44-Ig [6]; CD44-Ig): 26100 M⁻¹ s⁻¹

Continued, molecule first:

Molecule: chondroitin
inhibition of binding between biotinylated versican and P-selectin-Ig (P-selectin-Ig): not inhibited
interaction with immobilized glycosaminoglycan (sensorgram) (monomeric L-selectin): did not interact
interaction with immobilized glycosaminoglycan (sensorgram) [1]: did not interact
Kd (monomeric CD44): 129000 nM
koff (monomeric CD44): 0.0649 s⁻¹
kon (monomeric CD44): 503 M⁻¹ s⁻¹
interaction with immobilized glycosaminoglycan (sensorgram) (monomeric P-selectin [2]): did not interact
inhibition of binding between biotinylated versican and L-selectin-Ig (L-selectin-Ig): not inhibited
interaction with immobilized glycosaminoglycan (sensorgram) [3]: did not interact
interaction with immobilized glycosaminoglycan (sensorgram) [4]: did not interact
inhibition of binding between biotinylated versican and CD44-Ig (CD44-Ig [5]): inhibited

B1: P-selectin glycoprotein ligand-1: known ligand of P-selectin (protein, UniProt Q14242 42-412, looked up)
P-selectin glycoprotein …: QATEYEYLDYDFLPETEPPEMLRNSTDTTPLTGPGTPESTTVEPAARRSTGLDAGGAVTELTTELANMGNLSTDSAAMEIQTTQPAATEAQTTQPVPTEAQTTPLAATEAQTTRLTATEAQTTPLAATEAQTTPPAATEAQTTQPTGLEAQTTAPAAMEAQTTAPAAMEAQTTPPAAMEAQTTQTTAMEAQTTAPEATEAQTTQPTATEAQTTPLAAMEALSTEPSATEALSMEPTTKRGLFIPFSVSSVTHKGIPMAASNLSVNYPVGAPDHISVKQCLLAILILALVATIFFVCTVVLAVRLSRKGHMYPVRNYSPTEMVCISSLLPDGGEGPSATANGGLSKAKSPGLTPEPREDREGDDLTLHSFLP
Kd (monomeric P-selectin [7]): ~300 nM
association rate (monomeric P-selectin [7]): 4.4e+06 M⁻¹ s⁻¹
dissociation rate (monomeric P-selectin [7]): 1.4 s⁻¹
